Experimental data reported in ChEMBL document CHEMBL5096223, “Design, synthesis, and biological evaluation of 2-arylamino-4-(piperidin-4-yloxy)pyrimidines as potent EGFRT790M/L858R inhibitors to treat non-small cell lung cancer” (Bioorg Med Chem, 2022).

Tests used:
ASPC1 = assay: Antiproliferative activity against human ASPC1 cells harboring KRAS G12D mutant assessed as reduction in cell growth incubated for 72 hrs by MTT assay; type: functional, cell-based; settings: ASPC1, 72 h
[1] = Cytotoxicity against human HBE cells assessed as reduction in cell viability incubated for 72 hrs by MTT assay; type: toxicity, cell-based, Epithelial cell
SW-620 = assay: Antiproliferative activity against human SW620 cells harboring KRAS G12V mutant assessed as reduction in cell growth incubated for 72 hrs by MTT assay; type: functional, cell-based; settings: SW-620, 72 h
NCI-H1975 = assay: Antiproliferative activity against human NCI-H1975 cells harboring EGFR T790M/L858R mutant assessed as reduction in cell growth incubated for 72 hrs by MTT assay; type: functional, cell-based; settings: NCI-H1975, 72 h
[2] = Cytotoxicity against human A-431 cells harboring wild type EGFR assessed as reduction in cell viability incubated for 72 hrs by MTT assay; type: toxicity, cell-based
NCI-H358 = assay: Antiproliferative activity against human NCI-H358 cells harboring KRAS G12C mutant assessed as reduction in cell growth incubated for 72 hrs by MTT assay; type: functional, cell-based; settings: NCI-H358, 72 h
[3] = Cytotoxicity against human L02 cells assessed as reduction in cell viability incubated for 72 hrs by MTT assay; type: toxicity, cell-based
[4] = target: Epidermal growth factor receptor (Homo sapiens, UniProt P00533); assay: Inhibition of N-terminal GST-tagged human recombinant wild type EGFR (695 to end residues) expressed in baculovirus-infected Sf9 cells using poly (4:1 Glu,Tyr) peptide as substrate incubated for 60 mins in presence of ATP by ADP-Glo kinase assay
Homo sapiens = species: Homo sapiens; assay: Selectivity index, ratio of IC50 for N-terminal GST-tagged human recombinant wild type EGFR (695 to end residues) expressed in baculovirus-infected Sf9 cells to IC50 for N-terminal GST-tagged human recombinant EGFR T790M/L858R mutant (695 to end residues) expressed in baculovirus-infected Sf9 cells; type: functional
[5] = target: Epidermal growth factor receptor (Homo sapiens, UniProt P00533, L858R/T790M); assay: Inhibition of N-terminal GST-tagged human recombinant EGFR T790M/L858R mutant (695 to end residues) expressed in baculovirus-infected Sf9 cells using poly (4:1 Glu,Tyr) peptide as substrate incubated for 60 mins in presence of ATP by ADP-Glo kinase assay
Chain of Epidermal growth factor receptor (Homo sapiens, UniProt P00533, L858R/T790M) (P00533 25-1210 T790M/L858R limits assumed): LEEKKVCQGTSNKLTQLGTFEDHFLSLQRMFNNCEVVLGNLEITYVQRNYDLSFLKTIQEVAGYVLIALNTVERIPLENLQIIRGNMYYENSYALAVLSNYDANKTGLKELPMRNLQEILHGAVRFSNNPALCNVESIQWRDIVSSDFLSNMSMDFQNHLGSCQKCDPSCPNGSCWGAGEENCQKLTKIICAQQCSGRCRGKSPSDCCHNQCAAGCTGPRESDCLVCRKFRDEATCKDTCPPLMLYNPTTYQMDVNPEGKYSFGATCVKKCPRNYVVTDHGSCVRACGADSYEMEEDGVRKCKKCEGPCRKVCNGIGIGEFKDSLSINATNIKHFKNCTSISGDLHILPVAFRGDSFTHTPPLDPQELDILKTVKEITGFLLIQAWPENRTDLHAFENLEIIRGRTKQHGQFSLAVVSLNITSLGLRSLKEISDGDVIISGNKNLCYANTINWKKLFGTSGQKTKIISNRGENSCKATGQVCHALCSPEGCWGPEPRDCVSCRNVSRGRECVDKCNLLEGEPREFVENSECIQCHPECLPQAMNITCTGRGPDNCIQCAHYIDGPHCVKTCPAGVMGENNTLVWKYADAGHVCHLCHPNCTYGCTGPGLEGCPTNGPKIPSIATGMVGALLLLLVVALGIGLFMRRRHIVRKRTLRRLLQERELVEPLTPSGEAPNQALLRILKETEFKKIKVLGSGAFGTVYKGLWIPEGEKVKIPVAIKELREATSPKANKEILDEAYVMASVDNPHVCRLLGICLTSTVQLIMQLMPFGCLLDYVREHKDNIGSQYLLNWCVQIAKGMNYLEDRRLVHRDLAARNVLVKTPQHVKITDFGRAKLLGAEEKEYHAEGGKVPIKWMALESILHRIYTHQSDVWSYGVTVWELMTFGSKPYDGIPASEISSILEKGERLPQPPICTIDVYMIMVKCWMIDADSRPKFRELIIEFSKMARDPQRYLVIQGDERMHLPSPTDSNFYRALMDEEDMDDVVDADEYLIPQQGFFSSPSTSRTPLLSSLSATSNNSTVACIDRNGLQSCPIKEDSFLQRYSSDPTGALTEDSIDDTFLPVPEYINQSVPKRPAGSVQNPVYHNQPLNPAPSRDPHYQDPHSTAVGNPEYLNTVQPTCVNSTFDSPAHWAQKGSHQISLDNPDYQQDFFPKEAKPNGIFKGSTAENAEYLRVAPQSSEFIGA

Chain of Epidermal growth factor receptor (Homo sapiens, UniProt P00533) (P00533 whole entry): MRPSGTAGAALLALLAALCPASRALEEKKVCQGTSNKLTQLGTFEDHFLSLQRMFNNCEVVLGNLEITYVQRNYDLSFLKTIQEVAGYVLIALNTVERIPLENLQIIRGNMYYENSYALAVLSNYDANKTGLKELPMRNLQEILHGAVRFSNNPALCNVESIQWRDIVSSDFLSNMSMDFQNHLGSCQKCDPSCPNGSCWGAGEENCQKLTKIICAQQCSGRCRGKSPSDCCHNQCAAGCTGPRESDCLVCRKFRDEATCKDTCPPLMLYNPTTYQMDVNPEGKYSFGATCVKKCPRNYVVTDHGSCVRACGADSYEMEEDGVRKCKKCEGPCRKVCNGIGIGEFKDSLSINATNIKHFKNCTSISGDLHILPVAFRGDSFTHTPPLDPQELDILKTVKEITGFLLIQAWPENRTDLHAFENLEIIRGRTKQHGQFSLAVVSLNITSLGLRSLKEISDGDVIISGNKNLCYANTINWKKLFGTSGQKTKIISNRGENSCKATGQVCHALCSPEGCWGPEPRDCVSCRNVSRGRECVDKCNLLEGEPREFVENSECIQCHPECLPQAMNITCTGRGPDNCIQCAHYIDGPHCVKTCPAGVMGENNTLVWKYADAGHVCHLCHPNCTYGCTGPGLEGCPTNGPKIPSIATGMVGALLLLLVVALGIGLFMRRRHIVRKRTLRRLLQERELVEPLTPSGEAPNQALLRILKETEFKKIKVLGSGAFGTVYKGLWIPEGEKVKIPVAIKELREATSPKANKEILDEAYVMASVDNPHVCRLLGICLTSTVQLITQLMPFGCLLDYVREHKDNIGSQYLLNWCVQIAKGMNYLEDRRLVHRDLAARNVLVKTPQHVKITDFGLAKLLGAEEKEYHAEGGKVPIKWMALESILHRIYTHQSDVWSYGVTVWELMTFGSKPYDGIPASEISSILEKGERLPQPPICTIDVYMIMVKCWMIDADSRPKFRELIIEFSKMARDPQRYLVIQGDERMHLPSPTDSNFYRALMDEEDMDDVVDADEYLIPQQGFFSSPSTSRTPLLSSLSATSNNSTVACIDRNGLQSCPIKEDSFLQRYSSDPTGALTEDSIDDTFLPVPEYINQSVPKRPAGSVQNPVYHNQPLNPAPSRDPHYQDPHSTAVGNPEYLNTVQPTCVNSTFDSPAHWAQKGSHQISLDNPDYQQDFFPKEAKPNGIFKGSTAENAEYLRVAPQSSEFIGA

C=CC(=O)N1CCC(Oc2nc(Nc3ccc(N4CCN(C)CC4)cc3)ncc2Cl)CC1
IC50 (ASPC1): 5.84 µM | IC50 at 72 h [1]: 15 µM | IC50 (SW-620): 4.63 µM | IC50 (NCI-H1975): 1.7 µM | IC50 at 72 h [2]: 1.45 µM | IC50 (NCI-H358): 3.96 µM | IC50 at 72 h [3]: 8.77 µM

C=CC(=O)N1CCC(Oc2nc(Nc3ccc(N4CCN(C(C)=O)CC4)cc3OC)nc3ccsc23)CC1
IC50 (ASPC1): 0.48 µM | IC50 at 72 h [1]: 18.9 µM | IC50 (SW-620): 8.61 µM | IC50 (NCI-H1975): 3.74 µM | IC50 at 72 h [2]: 3.92 µM | IC50 [4]: 0.0607 µM | Ratio IC50 (Homo sapiens): 3 | IC50 (NCI-H358): 14.6 µM | IC50 at 72 h [3]: 10.6 µM | IC50 [5]: 0.0202 µM

C=CC(=O)N1CCC(Oc2nc(Nc3cnn(C)c3)nc3[nH]ccc23)CC1
IC50 (ASPC1): 1.15 µM | IC50 at 72 h [1]: > 20 µM | IC50 (SW-620): 2.36 µM | IC50 (NCI-H1975): 0.93 µM | IC50 at 72 h [2]: 3.99 µM | IC50 [4]: 0.387 µM | Ratio IC50 (Homo sapiens): 1.9 | IC50 (NCI-H358): 3.07 µM | IC50 at 72 h [3]: 10.2 µM | IC50 [5]: 0.204 µM

C=CC(=O)Nc1cc(Nc2nccc(-c3cn(C)c4ccccc34)n2)c(OC)cc1N(C)CCN(C)C [OSIMERTINIB]
IC50 at 72 h [2]: 1.32 µM

CCC(=O)N1CCC(Oc2nc(Nc3ccc(N4CCN(C)CC4)cc3)nc3ccsc23)CC1
IC50 (NCI-H1975): 26.1 µM | IC50 [4]: 0.268 µM | IC50 [5]: 0.356 µM

C=CC(=O)N1CCC(Oc2nc(Nc3ccc(N4CCN(C)CC4)c(F)c3)nc3[nH]ccc23)CC1
IC50 (ASPC1): 0.4 µM | IC50 at 72 h [1]: 3.02 µM | IC50 (SW-620): 1.6 µM | IC50 (NCI-H1975): 0.89 µM | IC50 at 72 h [2]: 1.29 µM | IC50 [4]: 0.119 µM | Ratio IC50 (Homo sapiens): 8.87 | IC50 (NCI-H358): 3.62 µM | IC50 at 72 h [3]: 1.89 µM | IC50 [5]: 0.0134 µM

C=CC(=O)N1CCC(Oc2nc(Nc3ccc(N4CCN(C(C)=O)CC4)cc3OC)nc3[nH]ccc23)CC1
IC50 (ASPC1): 4.92 µM | IC50 at 72 h [1]: 12.9 µM | IC50 (SW-620): 5.8 µM | IC50 (NCI-H1975): 3.78 µM | IC50 at 72 h [2]: 3.51 µM | IC50 [4]: 0.133 µM | Ratio IC50 (Homo sapiens): 4.23 | IC50 (NCI-H358): 3.56 µM | IC50 at 72 h [3]: 16.1 µM | IC50 [5]: 0.0313 µM

C=CC(=O)N1CCC(Oc2nc(Nc3ccc(N4CCOCC4)cc3OC)nc3ccsc23)CC1
IC50 (ASPC1): 0.51 µM | IC50 at 72 h [1]: > 20 µM | IC50 (SW-620): 8.67 µM | IC50 (NCI-H1975): 5.87 µM | IC50 at 72 h [2]: 15.2 µM | IC50 [4]: 0.246 µM | Ratio IC50 (Homo sapiens): 25.5 | IC50 (NCI-H358): > 20 µM | IC50 at 72 h [3]: 18.2 µM | IC50 [5]: 0.00966 µM

C=CC(=O)N1CCC(Oc2nc(Nc3ccc(N(C)CCN(C)C)cc3OC)nc3[nH]ccc23)CC1
IC50 (ASPC1): 5.13 µM | IC50 at 72 h [1]: > 20 µM | IC50 (SW-620): 7.84 µM | IC50 (NCI-H1975): 4.14 µM | IC50 at 72 h [2]: 16.7 µM | IC50 [4]: 0.0593 µM | Ratio IC50 (Homo sapiens): 7.7 | IC50 (NCI-H358): 5.62 µM | IC50 at 72 h [3]: 19 µM | IC50 [5]: 0.0077 µM

C=CC(=O)N1CCC(Oc2nc(Nc3ccc(N4CCOCC4)cc3)nc3ccsc23)CC1
IC50 (ASPC1): 2.77 µM | IC50 at 72 h [1]: 16.7 µM | IC50 (SW-620): 4.82 µM | IC50 (NCI-H1975): 5.8 µM | IC50 at 72 h [2]: 3.89 µM | IC50 [4]: 0.197 µM | Ratio IC50 (Homo sapiens): 30.2 | IC50 (NCI-H358): 16.5 µM | IC50 at 72 h [3]: 16.2 µM | IC50 [5]: 0.00653 µM

C=CC(=O)N1CCC(Oc2nc(Nc3ccc(CN4CCC(CO)CC4)cc3)ncc2Cl)CC1
IC50 (ASPC1): 2.18 µM | IC50 at 72 h [1]: 5.86 µM | IC50 (SW-620): 1.99 µM | IC50 (NCI-H1975): 1.07 µM | IC50 at 72 h [2]: 1.84 µM | IC50 [4]: 0.18 µM | Ratio IC50 (Homo sapiens): 14.6 | IC50 (NCI-H358): 16 µM | IC50 at 72 h [3]: 2.12 µM | IC50 [5]: 0.0123 µM

C=CC(=O)N1CCC(Oc2nc(Nc3ccn(C)n3)nc3ccsc23)CC1
IC50 (ASPC1): < 0.2 µM | IC50 at 72 h [1]: > 20 µM | IC50 (SW-620): > 20 µM | IC50 (NCI-H1975): 16.7 µM | IC50 at 72 h [2]: > 20 µM | IC50 [4]: 0.224 µM | Ratio IC50 (Homo sapiens): 1.78 | IC50 (NCI-H358): 20 µM | IC50 at 72 h [3]: 16.7 µM | IC50 [5]: 0.126 µM

C=CC(=O)N1CCC(Oc2nc(Nc3ccc(N4CCN(C)CC4)cc3)nc3[nH]ccc23)CC1
IC50 (ASPC1): 1.21 µM | IC50 at 72 h [1]: 7.94 µM | IC50 (SW-620): 2.47 µM | IC50 (NCI-H1975): 1.72 µM | IC50 at 72 h [2]: 1.65 µM | IC50 [4]: 0.0361 µM | Ratio IC50 (Homo sapiens): 6.35 | IC50 (NCI-H358): 4.22 µM | IC50 at 72 h [3]: 6.25 µM | IC50 [5]: 0.00568 µM

C=CC(=O)N1CCC(Oc2nc(Nc3ccc(N4CCN(C)CC4)c(F)c3)nc3ccsc23)CC1
IC50 (ASPC1): > 20 µM | IC50 at 72 h [1]: 4.05 µM | IC50 (SW-620): 3.57 µM | IC50 (NCI-H1975): 1.89 µM | IC50 at 72 h [2]: 1.38 µM | IC50 (NCI-H358): 6.26 µM | IC50 at 72 h [3]: 1.4 µM

C=CC(=O)N1CCC(Oc2nc(Nc3ccc(N4CCN(C)CC4)cc3OC)nc3ccsc23)CC1
IC50 (ASPC1): 0.65 µM | IC50 at 72 h [1]: 18.6 µM | IC50 (SW-620): 7.33 µM | IC50 (NCI-H1975): 1.67 µM | IC50 at 72 h [2]: 2.07 µM | IC50 [4]: 0.247 µM | Ratio IC50 (Homo sapiens): 17.4 | IC50 (NCI-H358): 7.4 µM | IC50 at 72 h [3]: 1.97 µM | IC50 [5]: 0.0142 µM

C=CC(=O)N1CCC(Oc2nc(Nc3ccc(N4CCN(C)CC4)cc3OC)nc3[nH]ccc23)CC1
IC50 (ASPC1): 7.04 µM | IC50 at 72 h [1]: > 20 µM | IC50 (SW-620): 9.88 µM | IC50 (NCI-H1975): 4.36 µM | IC50 at 72 h [2]: 2.71 µM | IC50 [4]: 0.0368 µM | Ratio IC50 (Homo sapiens): 2.99 | IC50 (NCI-H358): 9.86 µM | IC50 at 72 h [3]: 18 µM | IC50 [5]: 0.0123 µM

C=CC(=O)N1CCC(Oc2nc(Nc3ccc(N4CCN(CCO)CC4)cc3)ncc2Cl)CC1
IC50 (ASPC1): 2.74 µM | IC50 at 72 h [1]: 16.1 µM | IC50 (SW-620): 0.3 µM | IC50 (NCI-H1975): 1.53 µM | IC50 at 72 h [2]: 2.01 µM | IC50 [4]: 0.124 µM | Ratio IC50 (Homo sapiens): 2.94 | IC50 (NCI-H358): 4.66 µM | IC50 at 72 h [3]: 4.47 µM | IC50 [5]: 0.0421 µM

C=CC(=O)N1CCC(Oc2nc(Nc3ccc(N4CCN(C)CC4)c(F)c3)ncc2Cl)CC1
IC50 (ASPC1): 3.88 µM | IC50 at 72 h [1]: 8.91 µM | IC50 (SW-620): 1.64 µM | IC50 (NCI-H1975): 2.09 µM | IC50 at 72 h [2]: 3.26 µM | IC50 (NCI-H358): 1.51 µM | IC50 at 72 h [3]: 5.38 µM

C=CC(=O)N1CCC(Oc2nc(Nc3cnn(C)c3)nc3ccsc23)CC1
IC50 (ASPC1): 0.71 µM | IC50 at 72 h [1]: > 20 µM | IC50 (SW-620): 6.2 µM | IC50 (NCI-H1975): 2.31 µM | IC50 at 72 h [2]: 4.77 µM | IC50 [4]: 0.196 µM | Ratio IC50 (Homo sapiens): 1.45 | IC50 (NCI-H358): 17.6 µM | IC50 at 72 h [3]: 8.92 µM | IC50 [5]: 0.135 µM
